Publication PMC6480711, “The Molecular and Structural Basis of O-methylation Reaction in Coumarin Biosynthesis in Peucedanum praeruptorum Dunn” (International Journal of Molecular Sciences, 2019)

Columns and labels:
COMT-S = molecular target: T1, COMT-S (Kitagawia praeruptora, UniProt A0A4P8DY91); experiment: isothermal titration calorimetry; format: binding; settings: 25 mM Tris-HCl pH 8.0, 150 mM NaCl, 25 °C; cofactor analogue (product of SAM)
T1 construct: full-length CDS in pET28a, 6xHis tag, E. coli BL21 (DE3), Superdex 200
T1 sequence (A0A4P8DY91 1-364): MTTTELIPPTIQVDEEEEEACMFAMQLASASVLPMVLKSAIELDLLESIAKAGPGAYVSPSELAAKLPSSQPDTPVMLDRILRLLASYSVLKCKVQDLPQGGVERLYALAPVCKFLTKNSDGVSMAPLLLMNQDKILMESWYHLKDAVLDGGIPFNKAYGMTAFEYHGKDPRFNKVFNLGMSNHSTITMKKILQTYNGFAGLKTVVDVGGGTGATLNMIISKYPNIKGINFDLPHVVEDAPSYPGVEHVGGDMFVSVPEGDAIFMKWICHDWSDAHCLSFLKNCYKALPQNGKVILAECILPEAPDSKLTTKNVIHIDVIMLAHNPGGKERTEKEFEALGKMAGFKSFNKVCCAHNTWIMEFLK

PpBMT = molecular target: T2, PpBMT (Kitagawia praeruptora, UniProt A0A166U5H3); experiment: HPLC product analysis; format: biochemical; settings: co-substrate SAM; product bergapten
T2 construct: gene BMT; recombinant, construct as in the authors' previous report
T2 sequence (A0A166U5H3 whole entry): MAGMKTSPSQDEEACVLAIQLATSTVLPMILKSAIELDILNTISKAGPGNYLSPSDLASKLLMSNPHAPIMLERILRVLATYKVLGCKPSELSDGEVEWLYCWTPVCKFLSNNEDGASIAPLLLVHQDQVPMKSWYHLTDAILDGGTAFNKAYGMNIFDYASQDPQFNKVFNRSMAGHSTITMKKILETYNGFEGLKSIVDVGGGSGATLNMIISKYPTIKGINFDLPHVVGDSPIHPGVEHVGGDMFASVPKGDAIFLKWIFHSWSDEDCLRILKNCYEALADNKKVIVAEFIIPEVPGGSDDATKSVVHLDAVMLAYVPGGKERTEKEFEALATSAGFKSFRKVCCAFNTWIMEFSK

| Compound | equilibrium dissociation constant (COMT-S) | HPLC product analysis (PpBMT) |
| --- | --- | --- |
| Nc1ncnc2c1ncn2[C@@H]1O[C@H](CSCC[C@H](N)C(=O)O)[C@@H](O)[C@H]1O [SAH] | The equilibrium dissociation constants of PpBMT/COMT–SAH interactions were determined by an MicroCal Auto-ITC200 calorimeter | – |
| O=c1ccc2c(O)c3ccoc3cc2o1 [bergaptol] | – | COMT-S could accept esculetin, bergaptol, and xanthotoxl as substrates, while BMT could only catalyze bergaptol |
